Eleven compounds from patent US20250122183A1 (Pfizer Inc., priority 2023, published 2025) can be followed below.

Experiment [1] deals with KAT6A Full length enzyme (Homo sapiens (Human), UniProt Q92794). In words: KAT6A assay (SAMDI-MS acetylation of H3 1-21 peptide). It is filed as biochemical. The following applies: replicate number in parentheses.
Experiment [2] concerns the target KAT7+JADE1+EAF6+ING5 4 protein complex (Homo sapiens (Human), UniProt O95251). In words: KAT7 JADE1 assay (SAMDI-MS acetylation of H3 1-21 peptide). It is filed as biochemical. The following applies: replicate number in parentheses.
Setting [3] is: read-out: KAT6A Ki (nM) (replicate).
Where [4] appears, read: read-out: KAT7 JADE1 Ki (nM) (replicate).
[5] abbreviates: Morrison equation fit, read-out: KAT6A Ki (nM) (replicate number).
The mark [6] stands for this setting: Morrison equation fit, read-out: KAT7 JADE1 Ki (nM) (replicate number).

Like-named read-outs stand apart in the source and are kept apart here.

Chain of KAT6A Full length enzyme (Q92794 other isoform, or with tags, fused parts or gaps): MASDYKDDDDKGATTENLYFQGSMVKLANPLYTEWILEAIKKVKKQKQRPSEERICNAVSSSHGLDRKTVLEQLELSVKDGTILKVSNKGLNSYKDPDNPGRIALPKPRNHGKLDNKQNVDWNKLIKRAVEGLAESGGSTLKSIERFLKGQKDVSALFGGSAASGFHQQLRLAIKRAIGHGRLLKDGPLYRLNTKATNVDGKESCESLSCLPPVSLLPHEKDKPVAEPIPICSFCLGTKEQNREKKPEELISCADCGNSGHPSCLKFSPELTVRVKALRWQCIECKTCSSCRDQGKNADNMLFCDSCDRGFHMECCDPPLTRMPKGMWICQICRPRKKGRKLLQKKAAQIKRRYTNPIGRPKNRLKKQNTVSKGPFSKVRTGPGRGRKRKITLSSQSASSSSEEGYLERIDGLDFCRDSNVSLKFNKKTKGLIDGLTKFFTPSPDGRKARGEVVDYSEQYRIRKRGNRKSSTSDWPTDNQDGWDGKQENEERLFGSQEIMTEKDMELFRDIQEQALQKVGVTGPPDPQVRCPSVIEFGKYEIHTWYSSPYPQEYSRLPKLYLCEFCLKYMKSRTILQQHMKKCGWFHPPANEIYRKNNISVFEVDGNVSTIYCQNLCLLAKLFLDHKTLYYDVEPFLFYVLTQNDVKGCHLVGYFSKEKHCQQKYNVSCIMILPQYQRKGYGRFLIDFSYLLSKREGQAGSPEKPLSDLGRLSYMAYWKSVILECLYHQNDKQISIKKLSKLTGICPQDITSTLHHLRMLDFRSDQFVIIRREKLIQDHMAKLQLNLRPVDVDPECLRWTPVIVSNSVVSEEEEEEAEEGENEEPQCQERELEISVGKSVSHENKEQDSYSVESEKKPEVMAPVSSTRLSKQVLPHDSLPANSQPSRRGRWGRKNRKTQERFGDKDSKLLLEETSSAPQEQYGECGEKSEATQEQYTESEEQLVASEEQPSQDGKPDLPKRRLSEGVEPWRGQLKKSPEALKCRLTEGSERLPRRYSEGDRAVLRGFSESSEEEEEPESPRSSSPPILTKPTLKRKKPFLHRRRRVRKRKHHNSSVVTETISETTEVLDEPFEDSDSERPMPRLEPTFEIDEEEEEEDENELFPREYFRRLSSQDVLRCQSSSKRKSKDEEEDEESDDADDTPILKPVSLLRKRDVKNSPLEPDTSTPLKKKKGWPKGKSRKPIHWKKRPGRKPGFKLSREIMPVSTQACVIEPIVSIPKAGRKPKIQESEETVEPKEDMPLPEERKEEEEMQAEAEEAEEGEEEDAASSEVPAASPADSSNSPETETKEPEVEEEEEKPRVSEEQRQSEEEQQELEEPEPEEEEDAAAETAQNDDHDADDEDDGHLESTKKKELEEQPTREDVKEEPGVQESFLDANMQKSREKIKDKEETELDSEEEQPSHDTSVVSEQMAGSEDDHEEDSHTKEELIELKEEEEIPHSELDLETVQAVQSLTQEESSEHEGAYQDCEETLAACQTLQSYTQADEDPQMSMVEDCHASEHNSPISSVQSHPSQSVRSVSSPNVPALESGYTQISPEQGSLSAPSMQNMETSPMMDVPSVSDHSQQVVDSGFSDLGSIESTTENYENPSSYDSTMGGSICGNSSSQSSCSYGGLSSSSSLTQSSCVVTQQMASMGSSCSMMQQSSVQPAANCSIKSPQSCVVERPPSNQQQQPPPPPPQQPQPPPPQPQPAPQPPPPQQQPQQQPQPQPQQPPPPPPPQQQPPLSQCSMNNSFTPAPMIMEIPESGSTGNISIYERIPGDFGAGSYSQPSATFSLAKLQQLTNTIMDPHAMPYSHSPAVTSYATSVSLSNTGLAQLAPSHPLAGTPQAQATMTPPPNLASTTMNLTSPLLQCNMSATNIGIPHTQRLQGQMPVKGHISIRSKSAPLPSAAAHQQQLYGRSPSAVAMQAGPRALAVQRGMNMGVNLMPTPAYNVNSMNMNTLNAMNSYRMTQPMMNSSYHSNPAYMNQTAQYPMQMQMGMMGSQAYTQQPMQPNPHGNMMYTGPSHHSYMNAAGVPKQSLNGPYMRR

Regarding `COc1cc2c(NS(=O)(=O)c3c(OC)cc(C4CCCOC4)cc3OC)noc2cc1Nc1cc(C2CC2)n[nH]1` (single isomer, unassigned) [Example 269, N-{6-[(3-cyclopropyl-1 H-pyrazol-5-yl)amino]-5-methoxy-1,2-benzoxazol-3-yl}-2,6-dimethoxy-4-(oxan-3-yl)benzene-1-sulfonamide], the Ki in experiment [1] (setting [3]) stood at 0.8 nM; in experiment [2] (setting [4]) it was 6.1 nM.
The like results for `COCC(OC)c1cc(OC)c(S(=O)(=O)Nc2noc3cc(Nc4cc(C5CC5)[nH]n4)c(OC)cc23)c(OC)c1` (single isomer, unassigned) [Example 274, N-{6-[(5-cyclopropyl-1 H-pyrazol-3-yl)amino]-5-methoxy-1,2-benzoxazol-3-yl}-4-(1,2-dimethoxyethyl)-2,6-dimethoxybenzene-1-sulfonamide] were, in that order, 2.8 nM and 6.9 nM.
Consider `COCC(OC)c1cc(OC)c(S(=O)(=O)Nc2noc3cc(Nc4cc(C5CC5)[nH]n4)c(OC)cc23)c(OC)c1` (single isomer, unassigned) [Example 275, N-{6-[(5-cyclopropyl-1H-pyrazol-3-yl)amino]-5-methoxy-1,2-benzoxazol-3-yl}-4-(1,2-dimethoxyethyl)-2,6-dimethoxybenzene-1-sulfonamide], for which the Ki in experiment [1] (setting [3]) amounted to 1.1 nM; in experiment [2] (setting [4]), 9.7 nM.
As for `COc1cccc(OC)c1S(=O)(=O)Nc1noc2cc(NC3COC3)cc(OC)c12` [Example 11, 2,6-dimethoxy-N-{4-methoxy-6-[(oxetan-3-yl)amino]-1,2-benzoxazol-3-yl}benzene-1-sulfonamide], the Ki in experiment [1] (setting [5]) is 31.1 nM; in experiment [2] (setting [6]), over 2340 nM.
As to `COc1cccc(OC)c1S(=O)(=O)Nc1noc2cc(NC3CCCC3)cc(OC)c12` [Example 12, N-[6-(cyclopentylamino)-4-methoxy-1,2-benzoxazol-3-yl]-2,6-dimethoxybenzene-1-sulfonamide], the results for the inhibition constant (Ki) in experiment [1] (setting [5]) and in experiment [2] (setting [6]) were 25.6 nM and over 2340 nM, respectively.
On to `COc1cccc(OC)c1S(=O)(=O)Nc1noc2cc(N[C@@H]3CCOC3)cc(OC)c12` [Example 13, 2,6-dimethoxy-N-(4-methoxy-6-{[(3R)-oxolan-3-yl]amino}-1,2-benzoxazol-3-yl)benzene-1-sulfonamide], for which the figures for the Ki in experiment [1] (setting [5]) and in experiment [2] (setting [6]) were 25.5 nM and over 2340 nM, respectively.
Consider `COc1cccc(OC)c1S(=O)(=O)Nc1noc2cc(Nc3ncco3)cc(OC)c12` [Example 17, 2,6-dimethoxy-N-{4-methoxy-6-[(1,3-oxazol-2-yl)amino]-1,2-benzoxazol-3-yl}benzene-1-sulfonamide], for which the Ki in experiment [1] (setting [5]) was found to be 1.9 nM; in experiment [2] (setting [6]), 1230 nM.
Take `COc1cc2c(NS(=O)(=O)c3ccccc3)noc2cc1Nc1ccn(C)n1` [Example 21, N-{5-methoxy-6-[(1-methyl-1H-pyrazol-3-yl)amino]-1,2-benzoxazol-3-yl}benzenesulfonamide]: the values for the Ki in experiment [1] (setting [5]) and in experiment [2] (setting [6]) were 7.9 nM and 625 nM, respectively.
In the same order, the values of `COc1cc2c(NS(=O)(=O)c3c(OC)cccc3OC)noc2cc1Nc1noc(C)n1` [Example 37, 2,6-dimethoxy-N-{5-methoxy-6-[(5-methyl-1,2,4-oxadiazol-3-yl)amino]-1,2-benzoxazol-3-yl}benzene-1-sulfonamide] are 15.9 nM and over 2340 nM.
Consider `COc1cc2c(NS(=O)(=O)c3c(OC)cccc3OC)noc2cc1Nc1cc(C)nn1C` [Example 38, N-{6-[(1,3-dimethyl-1H-pyrazol-5-yl)amino]-5-methoxy-1,2-benzoxazol-3-yl}-2,6-dimethoxybenzene-1-sulfonamide], for which the inhibition constant Ki was 60.4 nM in experiment [1] (setting [5]) and over 12500 nM in experiment [2] (setting [6]).
Take `CCc1nc(Nc2cc3onc(NS(=O)(=O)c4c(OC)cccc4OC)c3cc2OC)no1` [Example 43, N-{6-[(5-ethyl-1,2,4-oxadiazol-3-yl)amino]-5-methoxy-1,2-benzoxazol-3-yl}-2,6-dimethoxybenzene-1-sulfonamide]: the inhibition constant Ki in experiment [1] (setting [5]) is 55.5 nM; in experiment [2] (setting [6]), over 2340 nM.
